According to patent US20080300554A1, “LUBRICANT FOR MEDICAL DEVICES” (APPLIED MEDICAL RESOURCES CORPORATION, priority 2007, published 2008):

Experiment: Lubricity durability after incubation in PBS at 70° C.
Assay type: physicochemical
Details: PBS at 70° C. for 20 hours
Method: Lacking a direct assay for PEI, an indirect measure of cross-linking effectiveness was selected. This method involved measuring the stability of the cross-linked coating when incubated in PBS at 70° C. for 20 hours. […] It was assumed that this durability was only possible if cross-linking had immobilized the PEI into a cross-linked matrix. PVP which cannot participate in this cross-linking was free to diffuse through the matrix to maintain lubricity. This assumption was further validated when the covalently cross-linked coating tested as non toxic.
Primary amines react readily with epoxides to form a secondary amine alcohol. Therefore, a multifunctional epoxide has the capability of cross-linking PEI into an immobile matrix EGDE (Sigma Chemical, ethylene glycol diglycidyl ether, E27203 50% technical grade) is a diepoxide with this capability. EGDE is readily soluble in water and isopropanol and can be applied to a coated sheath by a simple dip into an EGDE solution. Effectiveness of EGDE as a cross-linker of PEI was evaluated at 0.1% and 0.5% in aqueous and isopropanol solutions. Evidence of cross-linking was determined by the durability of lubricity after incubation in phosphate buffered saline (PBS) for 20+ hours at 70° C.
This test consisted of incubation of 6 inch segments of the coated sheaths in phosphate buffered saline (PBS) in 18×150 mm test tubes at 70° C. for 20-24 hours. […]

Lubricity after incubation in PBS (lubricity durability) | Compound
showed lubricity durability | O=CCCCC=O [Glutaraldehyde]
showed lubricity durability | polyethyleneglycol diglycidyl ether
